Structures are written as SMILES. pIC50: −log10 of the molar value.

In one assay the target is T1, NAMPT (Homo sapiens, UniProt P43490).
T1 construct: His tag; host or cells: E. coli
The assay can be described thus: Biochemical inhibition assay: NAMPT enzymatic reaction, NMN quantified by mass spectrometry. The conditions noted are these: NAMPT enzymatic assay; read-out: Biochem IC50. In outline:
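Inhibition of E. coli-expressed His-tagged human NAMPT, measured as NMN formation by mass spectrometry after a 30 min room-temperature reaction containing 1 μM NAM, 100 μM PRPP and 2.5 mM ATP.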

The next assay has as its system A2780 cells. The assay can be described thus: In-vitro cell proliferation assay (SRB), A2780 cells. In kind it is cell-based. The settings on record: Homo sapiens, A2780, 72 h, A2780 cells, 72 hours, SRB; read-out: A2780 IC50. A digest of the protocol:
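SRB read-out: 6% TCA fix 1 h at 4° C., stain, Tris solubilize, A570. Media-only background subtracted; % inhibition from two compound concentrations.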

T1 sequence (P43490 whole entry): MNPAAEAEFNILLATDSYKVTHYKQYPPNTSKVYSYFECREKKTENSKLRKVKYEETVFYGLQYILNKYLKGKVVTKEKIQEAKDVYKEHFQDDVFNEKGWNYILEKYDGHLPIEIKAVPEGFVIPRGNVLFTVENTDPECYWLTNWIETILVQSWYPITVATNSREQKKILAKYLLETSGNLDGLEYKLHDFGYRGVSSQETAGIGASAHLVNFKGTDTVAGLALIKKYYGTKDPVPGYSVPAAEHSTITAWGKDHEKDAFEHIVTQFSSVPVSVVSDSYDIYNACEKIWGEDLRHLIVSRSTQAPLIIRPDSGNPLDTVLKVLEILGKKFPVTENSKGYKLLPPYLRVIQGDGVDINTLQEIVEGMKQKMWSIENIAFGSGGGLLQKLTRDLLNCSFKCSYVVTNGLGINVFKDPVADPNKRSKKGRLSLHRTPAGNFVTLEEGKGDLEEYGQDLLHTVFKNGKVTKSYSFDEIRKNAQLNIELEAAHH

For the compound `Cc1cnc(S(=O)(=O)c2ccc(CNC(=O)c3cc4ccncc4o3)cc2)n1C` [N-{[4-(1,5-dimethyl-1H-imidazole-2-sulfonyl)phenyl]methyl}furo[2,3-c]pyridine-2-carboxamide], the negative logarithm of the IC50 (pIC50) was 7.24 at NAMPT and 7.18 with A2780 cells.

Take `Cc1cnc(S(=O)(=O)c2ccc(CNC(=O)c3ccc4nccn4c3)cc2)n1C` [N-{[4-(1,5-dimethyl-1H-imidazole-2-sulfonyl)phenyl]methyl}imidazo[1,2-a]pyridine-6-carboxamide]: the pIC50 at NAMPT was 7.51; in the assay on A2780 cells it was 7.14.

On to `Cc1cnc(S(=O)(=O)c2ccc(CNC(=O)c3cnc4nccn4c3)cc2)n1C` [N-{[4-(1,5-dimethyl-1H-imidazole-2-sulfonyl)phenyl]methyl}imidazo[1,2-a]pyrimidine-6-carboxamide], for which the negative-log IC50 (pIC50) on NAMPT was 7.48; in the assay on A2780 cells, 5.00 to 6.00.

As to `O=C(NCc1ccc(S(=O)(=O)c2cccc3ccsc23)cc1)c1cnc2[nH]ncc2c1` [N-{[4-(1-benzothiophene-7-sulfonyl)phenyl]methyl}-1H-pyrazolo[3,4-b]pyridine-5-carboxamide], the values for the pIC50 on NAMPT and with A2780 cells were 8.00 and 7.89, respectively.

On to `O=C(NCc1ccc(S(=O)(=O)c2cccc3ccsc23)cc1)c1cc2ccncc2o1` [N-{[4-(1-benzothiophene-7-sulfonyl)phenyl]methyl}furo[2,3-c]pyridine-2-carboxamide], for which the negative logarithm of the IC50 (pIC50) at NAMPT was 8.31; with A2780 cells, 7.86.

As to `O=C(NCc1ccc(S(=O)(=O)c2cccc3ccsc23)cc1)c1cc2ccncc2s1` [N-{[4-(1-benzothiophene-7-sulfonyl)phenyl]methyl}thieno[2,3-c]pyridine-2-carboxamide], the negative logarithm of the IC50 (pIC50) on NAMPT and in the assay with A2780 cells was 8.82 in each case.

For `Cn1cnc2ccc(S(=O)(=O)c3ccc(CNC(=O)c4cnc5nccn5c4)cc3)cc21` [N-{[4-(1-methyl-1H-1,3-benzodiazole-6-sulfonyl)phenyl]methyl}imidazo[1,2-a]pyrimidine-6-carboxamide], the figures for the negative-log IC50 (pIC50) at NAMPT and with A2780 cells were 8.40 and 7.47, respectively.

For `Cn1ncc2c(S(=O)(=O)c3ccc(CNC(=O)c4ccc5ncsc5c4)cc3)cccc21` [N-{[4-(1-methyl-1H-indazole-4-sulfonyl)phenyl]methyl}-1,3-benzothiazole-6-carboxamide], the results for the negative-log IC50 (pIC50) at NAMPT and with A2780 cells were 8.01 and 5.00 to 6.00, respectively.

In the case of `Cn1ncc2c(S(=O)(=O)c3ccc(CNC(=O)c4cnc5[nH]ncc5c4)cc3)cccc21` [N-{[4-(1-methyl-1H-indazole-4-sulfonyl)phenyl]methyl}-1H-pyrazolo[3,4-b]pyridine-5-carboxamide], the pIC50 at NAMPT is 7.69; in the assay with A2780 cells it was 8.19.

Regarding `Cn1ncc2c(S(=O)(=O)c3ccc(CNC(=O)c4cc5cnccc5[nH]4)cc3)cccc21` [N-{[4-(1-methyl-1H-indazole-4-sulfonyl)phenyl]methyl}-1H-pyrrolo[3,2-c]pyridine-2-carboxamide], the negative-log IC50 (pIC50) at NAMPT was 8.51; with A2780 cells, 8.82.

For the compound `Cn1ncc2c(S(=O)(=O)c3ccc(CNC(=O)c4cc5ccncc5o4)cc3)cccc21` [N-{[4-(1-methyl-1H-indazole-4-sulfonyl)phenyl]methyl}furo[2,3-c]pyridine-2-carboxamide], the negative logarithm of the IC50 (pIC50) is 8.04 on NAMPT and 8.44 in the assay with A2780 cells.

On to `Cn1ncc2c(S(=O)(=O)c3ccc(CNC(=O)c4ccc5nccn5c4)cc3)cccc21` [N-{[4-(1-methyl-1H-indazole-4-sulfonyl)phenyl]methyl}imidazo[1,2-a]pyridine-6-carboxamide], for which the values for the pIC50 on NAMPT and in the assay on A2780 cells were 7.90 and 8.52, respectively.

Take `Cn1ncc2c(S(=O)(=O)c3ccc(CNC(=O)c4cnc5nccn5c4)cc3)cccc21` [N-{[4-(1-methyl-1H-indazole-4-sulfonyl)phenyl]methyl}imidazo[1,2-a]pyrimidine-6-carboxamide]: the negative-log IC50 (pIC50) at NAMPT was 8.38; in the assay on A2780 cells it was 7.99.

With `Cn1ncc2c(S(=O)(=O)c3ccc(CNC(=O)c4cc5ccncc5s4)cc3)cccc21` [N-{[4-(1-methyl-1H-indazole-4-sulfonyl)phenyl]methyl}thieno[2,3-c]pyridine-2-carboxamide], the figures for the pIC50 at NAMPT and in the assay on A2780 cells were 8.96 and 9.10, respectively.

With `Cn1ncc2cc(S(=O)(=O)c3ccc(CNC(=O)c4cnc5[nH]ncc5c4)cc3)ccc21` [N-{[4-(1-methyl-1H-indazole-5-sulfonyl)phenyl]methyl}-1H-pyrazolo[3,4-b]pyridine-5-carboxamide], the figures for the pIC50 at NAMPT and in the assay with A2780 cells were 8.27 and 8.56, respectively.

With `Cn1ncc2cc(S(=O)(=O)c3ccc(CNC(=O)c4cc5cnccc5[nH]4)cc3)ccc21` [N-{[4-(1-methyl-1H-indazole-5-sulfonyl)phenyl]methyl}-1H-pyrrolo[3,2-c]pyridine-2-carboxamide], the values for the pIC50 on NAMPT and with A2780 cells were 8.24 and 8.51, respectively.

Consider `Cn1ncc2cc(S(=O)(=O)c3ccc(CNC(=O)c4cc5ccncc5o4)cc3)ccc21` [N-{[4-(1-methyl-1H-indazole-5-sulfonyl)phenyl]methyl}furo[2,3-c]pyridine-2-carboxamide], for which the negative logarithm of the IC50 (pIC50) at NAMPT is 8.48; with A2780 cells, 8.46.

Regarding `Cn1ncc2cc(S(=O)(=O)c3ccc(CNC(=O)c4ccc5nccn5c4)cc3)ccc21` [N-{[4-(1-methyl-1H-indazole-5-sulfonyl)phenyl]methyl}imidazo[1,2-a]pyridine-6-carboxamide], the values for the pIC50 on NAMPT and in the assay with A2780 cells were 8.40 and 8.80, respectively.

Consider `Cn1ncc2cc(S(=O)(=O)c3ccc(CNC(=O)c4cnc5nccn5c4)cc3)ccc21` [N-{[4-(1-methyl-1H-indazole-5-sulfonyl)phenyl]methyl}imidazo[1,2-a]pyrimidine-6-carboxamide], for which the figures for the negative logarithm of the IC50 (pIC50) on NAMPT and with A2780 cells were 8.77 and 8.31, respectively.

Regarding `Cn1ncc2cc(S(=O)(=O)c3ccc(CNC(=O)c4cc5ccncc5s4)cc3)ccc21` [N-{[4-(1-methyl-1H-indazole-5-sulfonyl)phenyl]methyl}thieno[2,3-c]pyridine-2-carboxamide], the pIC50 on NAMPT was 8.82; in the assay on A2780 cells, 8.80.

For the compound `Cn1ncc2ccc(S(=O)(=O)c3ccc(CNC(=O)c4cnc5[nH]ncc5c4)cc3)cc21` [N-{[4-(1-methyl-1H-indazole-6-sulfonyl)phenyl]methyl}-1H-pyrazolo[3,4-b]pyridine-5-carboxamide], the pIC50 on NAMPT was 8.40; with A2780 cells, 8.52.

For the compound `Cn1ncc2ccc(S(=O)(=O)c3ccc(CNC(=O)c4cc5cnccc5[nH]4)cc3)cc21` [N-{[4-(1-methyl-1H-indazole-6-sulfonyl)phenyl]methyl}-1H-pyrrolo[3,2-c]pyridine-2-carboxamide], the pIC50 on NAMPT is 8.29; in the assay with A2780 cells it was 8.48.

For `Cn1ncc2ccc(S(=O)(=O)c3ccc(CNC(=O)c4cc5ccncc5o4)cc3)cc21` [N-{[4-(1-methyl-1H-indazole-6-sulfonyl)phenyl]methyl}furo[2,3-c]pyridine-2-carboxamide], the pIC50 on NAMPT was 8.33; in the assay on A2780 cells, 8.47.

Consider `Cn1ncc2ccc(S(=O)(=O)c3ccc(CNC(=O)c4ccc5nccn5c4)cc3)cc21` [N-{[4-(1-methyl-1H-indazole-6-sulfonyl)phenyl]methyl}imidazo[1,2-a]pyridine-6-carboxamide], for which the results for the negative logarithm of the IC50 (pIC50) on NAMPT and in the assay with A2780 cells were 8.30 and 8.41, respectively.

As for `Cn1ncc2ccc(S(=O)(=O)c3ccc(CNC(=O)c4cnc5nccn5c4)cc3)cc21` [N-{[4-(1-methyl-1H-indazole-6-sulfonyl)phenyl]methyl}imidazo[1,2-a]pyrimidine-6-carboxamide], the negative-log IC50 (pIC50) is 8.80 at NAMPT and 8.30 in the assay with A2780 cells.

Take `Cn1ncc2ccc(S(=O)(=O)c3ccc(CNC(=O)c4cc5ccncc5s4)cc3)cc21` [N-{[4-(1-methyl-1H-indazole-6-sulfonyl)phenyl]methyl}thieno[2,3-c]pyridine-2-carboxamide]: the pIC50 at NAMPT is 8.64; in the assay on A2780 cells it was 8.96.

For the compound `Cn1ncc2cccc(S(=O)(=O)c3ccc(CNC(=O)c4cnc5[nH]ncc5c4)cc3)c21` [N-{[4-(1-methyl-1H-indazole-7-sulfonyl)phenyl]methyl}-1H-pyrazolo[3,4-b]pyridine-5-carboxamide], the pIC50 at NAMPT was 7.04; with A2780 cells, 7.06.

Consider `Cn1ncc2cccc(S(=O)(=O)c3ccc(CNC(=O)c4cc5cnccc5[nH]4)cc3)c21` [N-{[4-(1-methyl-1H-indazole-7-sulfonyl)phenyl]methyl}-1H-pyrrolo[3,2-c]pyridine-2-carboxamide], for which the pIC50 is 7.43 on NAMPT and 7.95 in the assay on A2780 cells.

With `Cn1ncc2cccc(S(=O)(=O)c3ccc(CNC(=O)c4cc5ccncc5o4)cc3)c21` [N-{[4-(1-methyl-1H-indazole-7-sulfonyl)phenyl]methyl}furo[2,3-c]pyridine-2-carboxamide], the figures for the negative-log IC50 (pIC50) on NAMPT and with A2780 cells were 7.94 and 7.56, respectively.

On to `Cn1ncc2cccc(S(=O)(=O)c3ccc(CNC(=O)c4ccc5nccn5c4)cc3)c21` [N-{[4-(1-methyl-1H-indazole-7-sulfonyl)phenyl]methyl}imidazo[1,2-a]pyridine-6-carboxamide], for which the negative-log IC50 (pIC50) at NAMPT is 7.54; in the assay on A2780 cells, 7.56.

Take `Cn1ncc2cccc(S(=O)(=O)c3ccc(CNC(=O)c4cnc5nccn5c4)cc3)c21` [N-{[4-(1-methyl-1H-indazole-7-sulfonyl)phenyl]methyl}imidazo[1,2-a]pyrimidine-6-carboxamide]: the negative-log IC50 (pIC50) on NAMPT is 7.63; with A2780 cells it was 6.00 to 7.00.

In the case of `Cn1ncc2cccc(S(=O)(=O)c3ccc(CNC(=O)c4cc5ccncc5s4)cc3)c21` [N-{[4-(1-methyl-1H-indazole-7-sulfonyl)phenyl]methyl}thieno[2,3-c]pyridine-2-carboxamide], the pIC50 on NAMPT is 8.35; in the assay on A2780 cells, 7.98.

Take `Cn1c(S(=O)(=O)c2ccc(CNC(=O)c3cnc4[nH]ncc4c3)cc2)cc2ccccc21` [N-{[4-(1-methyl-1H-indole-2-sulfonyl)phenyl]methyl}-1H-pyrazolo[3,4-b]pyridine-5-carboxamide]: the negative-log IC50 (pIC50) on NAMPT was 7.85; in the assay with A2780 cells, 7.88.

For orientation: pIC50 means the IC50 on a negative log10 scale, so that one unit is a factor of ten.

For the origin of these results see patent US12336981B2, “Compounds and compositions for the inhibition of NAMPT” (Valo Health, Inc., priority 2010, dated 2025).
